The values that follow are results of earlier work, collected in patent US20100080768A1, “Compositions and Methods for the Treatment of Inflammatory Dermatosis and Other Pathological Conditions of the Skin” (priority 2008, published 2010).

SMILES strings stand for the structures.

Experiment in data set [1]: not given
This is another data set of the same source.

With `NC(=O)c1cccnc1` [Nicotinamide, nicotinamide], the solubility in water result was “free soluble”. In addition, the pka value in data set [1] was 0.5.
